Experiments:
ESECT-7 cells [1] = assay: Cell proliferation assay (MTT), ESECT-7; format: cell-based, human; settings: 24 hr; 5-10 μM DIM-C-pPhOH-3-Cl-5-OCH3, 15-25 μM DIM-C-pPhOH; FIG. 2C
Experimental: Primary human endometriotic stromal cells from endometriosis patients: Ovarian endometrioma were isolated from endometriosis patients in the proliferative phase following the IRB-approved protocol. Isolated ectopic lesions were digested with collagenase type 3 (300 μg/ml) and DNaseI (40 μg/ml) for 90 min at 37° C., and then tissues were filtered through 150, 100, and 40 μm sieves to isolate endometrial stromal cells. The collected endometrial stromal cells were cultured in DMEM/F12 with 10% FBS plus 1× antibiotic/antimycotic solution and then validated by flow cytometry with a CD90 antibody (a mesenchymal marker). Henceforth, we refer to the stromal cells as ectopic endometrium isolated ovarian endometrioma (ESECT). As the control, primary normal endometrial stromal cells isolated from the biopsy of the eutopic endometrium of normal women (NEM) in the proliferative phase. All cells were incubated at 37° C. in CO2 incubator in an atmosphere of humidified 5% CO2 and 95% air.
Cell proliferation assay: Patient-derived endometriotic cells ESECT-7 and ESECT-40 were seeded into a 96-well plate, and the cells were then treated for 24 hr with either DMSO or different concentrations of DIM-C-pPhOH and DIM-C-pPhOH-3-Cl-5-OCH3. […] Dimethyl sulfoxide (DMSO) was added and incubated at […] for 10 min, and absorbance was measured at 570 nm.

NR4A1 = target: T1, NR4A1 (Mus musculus, UniProt P12813); settings: C2C12 muscle cells; cited from earlier work
T1 construct: endogenous in cells; host or cells: C2C12 muscle cells

IHEECs = assay: Expression of fibrosis markers in IHEECs; format: cell-based, human; settings: 24 hours, vs control, FIG. 6B
ESECT-7 cells [2] = assay: α-SMA immunofluorescence, ESECT-7; format: cell-based, human; settings: vs control, FIG. 5A
Experimental: Immunofluorescence: ESECT-7 and ESECT-40 cells were seeded in Nunc chambered cover-glass followed by various drug treatments. The cells were fixed with 4% paraformaldehyde in PBS for 20 minutes at 37° C. Cells were then blocked and incubated overnight with primary α-SMA antibody in the buffer (5% bovine serum albumin in PBS) at 4° C., followed by incubation with Alexa Fluor conjugated secondary antibody at a dilution of 1:250 for 2 hours at room temperature. Finally, cells were observed using a Zeiss confocal fluorescence microscope.

human ectopic lesions = assay: Endometriosis mouse model by hetero-transplantation with human endometrial cells in SCID mice; format: in vivo; settings: SCID mice with HECs carrying luciferase; 25 mg/kg once a day, 30 days; p=0.022; FIGS. 9B, 9C
Source text: Endometriosis Mouse Model by Hetero-transplantation with immortalized human endometrial cells: The luciferase stable immortalized human endometrial epithelial cells […] and luciferase stable immortalized human endometrial stromal cells (LIHESCs) were generated from IHESCs isolated from endometria obtained from hysterectomies for benign conditions and IHEECs generated from ovarian endometrioma by transducing lentivirus-expressing luciferase and then the expression of luciferase was validated with the luciferase activity assay. Matrigel contained the mixture of LIHESCs (1×10^6 cells) and LIHEECs (1×10^6 cells) were injected into the peritoneal cavity of female severe combined immune deficiency (SCID) mice (6 weeks old) to induce endometriosis. Henceforth, we refer to the mixture of LIHEECs and LIHESCs as human endometrial cells (HEC). […] To noninvasively determine the progression of human ectopic lesions, we injected mice with 150 mg/kg of D-Luciferin intra-peritoneally 5 min before imaging, and then determined luciferase activities of human ectopic lesions in mice using In Vivo Image System.

ESECT-7 cells [3] = assay: Quantitative real-time PCR of fibrosis markers, ESECT-7; format: cell-based, human; settings: 24 hours, 20-25 μM DIM-C-pPhOH, 5-10 μM DIM-C-pPhOH-3-Cl-5-OCH3, vs DMSO control, FIG. 5C
Experimental: Quantitative real-time PCR: Total RNA was isolated from cultured cells according to the manufacturer's instructions (Zymo Research, Irvine, CA). The concentration and purity of the RNA samples were determined using a nanodrop spectrophotometer. Total RNA was reverse transcribed using iTaq Universal SYBR Green One-Step Kit (Thermo Fisher Scientific, Grand Island, NY) using the manufacturer's protocol with the CFX384 real-time PCR System (Bio-Rad). The comparative cycle threshold method was used for relative quantitation of samples. Values for each gene were normalized to expression levels of TATA-binding protein. The sequences of the primers used for real-time PCR included the following: α-SMA, 5′-GGCCGAGATCTCACTGACTAC-3′ (sense, SEQ ID NO. 13) and 5′-TTC ATG GAT GCC AGC AGA-3′ (antisense, SEQ ID NO. 14); COL1A1, 5′-CAG CCG CTT CAC CTA CAG C-3′ (sense, SEQ ID NO. 15) and 5′-TTTTGTATTCAATCAGTGTCTTGCC-3′ (antisense, SEQ ID NO. 16); CTGF, 5′-TTGGCCCAGACCCAACTATG-3′(sense, SEQ ID NO. 17) and 5′-CAGGAGGCGTTGTCATTGGT-3′ (antisense, SEQ ID NO. 18); FN, 5′-GGG AGC CTC GAA GAG C-3′ (sense 19) and 5′-AACAAGTACAAACCAACGCA-3′ (antisense, SEQ ID NO. 20) and TATA-binding protein, 5′-GATCAGAACAACAGCCTGCC-3′ (sense, SEQ ID NO. 21) and 5′-TTCTGAATAGGCTGTGGGGT-3′ […].

T1 sequence (P12813 whole entry): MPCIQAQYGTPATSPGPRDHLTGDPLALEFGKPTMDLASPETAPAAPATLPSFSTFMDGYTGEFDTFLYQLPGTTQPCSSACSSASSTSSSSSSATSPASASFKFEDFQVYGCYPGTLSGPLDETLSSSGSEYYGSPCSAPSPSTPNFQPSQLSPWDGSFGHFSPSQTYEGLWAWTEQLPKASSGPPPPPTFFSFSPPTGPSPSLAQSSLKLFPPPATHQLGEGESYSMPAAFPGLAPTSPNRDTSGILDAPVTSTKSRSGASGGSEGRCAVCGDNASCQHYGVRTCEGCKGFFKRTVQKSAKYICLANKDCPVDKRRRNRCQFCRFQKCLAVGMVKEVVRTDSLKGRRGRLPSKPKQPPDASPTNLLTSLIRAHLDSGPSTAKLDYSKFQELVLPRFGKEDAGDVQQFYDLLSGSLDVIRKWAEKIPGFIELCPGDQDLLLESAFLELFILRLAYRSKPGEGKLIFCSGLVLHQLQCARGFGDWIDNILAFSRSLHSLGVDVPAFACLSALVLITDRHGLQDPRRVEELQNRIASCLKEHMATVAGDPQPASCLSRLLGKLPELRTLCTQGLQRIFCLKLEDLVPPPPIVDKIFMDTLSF

COc1cc(C(c2c[nH]c3ccccc23)c2c[nH]c3ccccc23)cc(Cl)c1O [DIM-C-pPhOH-3-Cl-5-OCH3]
growth of ESECT-7 cells (ESECT-7 cells [1]): effectively inhibited the growth
NR4A1 agonist activity, induction of genes involved in glucose uptake (NR4A1): worked as NR4A1 agonists
expression of fibrosis markers (α-SMA, COL1A1, FN, CTGF) (IHEECs): decreased expression of fibrosis markers
expression of SMA levels (ESECT-7 cells [2]): decreased expression of SMA levels
reduction of luciferase activity in human ectopic lesions compared with the vehicle (human ectopic lesions): 13.4 fold
mRNA levels of fibrosis markers (FN, Col1A1, CTGF) (ESECT-7 cells [3]): decreased mRNA levels
